Converted amounts (≈) assume the structure as drawn.
How the values were obtained:
[1] = target: T1, Lysine-specific demethylase 4C (Homo sapiens, UniProt Q9H3R0); assay: Inhibition of recombinant human N-terminal FLAG-tagged KDM4C expressed in baculovirus infected Sf9 insect cells using H3K9me3 peptide as substrate after 30 to 45 mins by TR-FRET assay
T1 sequence (Q9H3R0 whole entry): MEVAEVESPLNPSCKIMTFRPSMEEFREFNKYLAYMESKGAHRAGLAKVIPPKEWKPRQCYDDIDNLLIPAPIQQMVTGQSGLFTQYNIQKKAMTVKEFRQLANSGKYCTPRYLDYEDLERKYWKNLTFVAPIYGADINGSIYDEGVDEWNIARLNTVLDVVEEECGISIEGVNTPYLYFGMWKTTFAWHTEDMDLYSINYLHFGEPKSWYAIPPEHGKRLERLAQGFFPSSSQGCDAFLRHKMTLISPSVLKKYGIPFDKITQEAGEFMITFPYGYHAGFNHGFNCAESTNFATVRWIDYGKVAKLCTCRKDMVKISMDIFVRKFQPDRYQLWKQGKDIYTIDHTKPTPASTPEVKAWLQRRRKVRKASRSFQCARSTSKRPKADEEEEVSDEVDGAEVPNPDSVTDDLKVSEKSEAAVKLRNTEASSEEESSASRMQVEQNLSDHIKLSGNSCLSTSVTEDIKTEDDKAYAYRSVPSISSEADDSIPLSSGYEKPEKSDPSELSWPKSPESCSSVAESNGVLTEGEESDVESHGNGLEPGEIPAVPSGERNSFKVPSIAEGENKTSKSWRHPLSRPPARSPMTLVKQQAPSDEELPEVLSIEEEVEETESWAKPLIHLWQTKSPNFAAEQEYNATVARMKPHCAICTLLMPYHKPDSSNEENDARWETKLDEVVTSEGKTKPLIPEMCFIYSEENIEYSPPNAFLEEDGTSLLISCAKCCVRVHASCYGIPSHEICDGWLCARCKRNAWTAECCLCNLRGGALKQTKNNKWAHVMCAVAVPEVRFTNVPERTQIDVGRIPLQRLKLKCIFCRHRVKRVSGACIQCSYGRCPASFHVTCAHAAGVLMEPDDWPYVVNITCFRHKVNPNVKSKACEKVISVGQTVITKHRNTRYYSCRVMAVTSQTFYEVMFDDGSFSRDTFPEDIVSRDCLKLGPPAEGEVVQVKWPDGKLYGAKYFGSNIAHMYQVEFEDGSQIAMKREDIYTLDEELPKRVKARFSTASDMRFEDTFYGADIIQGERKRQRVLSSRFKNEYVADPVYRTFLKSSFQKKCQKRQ

[2] = Kinetic solubility of the compound; format: physicochemical; details: read-out: Kinetic_solubility

IC50 [1]: 4.1 µM | solubility kinetic [2]: 112 µM (≈ 32.5 µg/mL)
Structure (SMILES): CC(C)c1cc(C(=O)N2CC[C@@H](NC(=O)C3CC3)C2)[nH]n1

From ChEMBL document CHEMBL4033700, “From a novel HTS hit to potent, selective, and orally bioavailable KDM5 inhibitors” (Bioorg Med Chem Lett, 2017)
